How the values were obtained:
[1] = biological target: T1, human cloned 5-HT6 receptors (Homo sapiens, UniProt P50406); assay: 5-HT6 receptor affinity, procedures outlined in WO98/27081; format: binding; conditions: read-out: pKi values at human cloned 5-HT6 receptors (converted)
T1 construct: expressed in transfected cells
Description: Compounds can be tested following the procedures outlined in WO98/27081.

T1 sequence (P50406 whole entry): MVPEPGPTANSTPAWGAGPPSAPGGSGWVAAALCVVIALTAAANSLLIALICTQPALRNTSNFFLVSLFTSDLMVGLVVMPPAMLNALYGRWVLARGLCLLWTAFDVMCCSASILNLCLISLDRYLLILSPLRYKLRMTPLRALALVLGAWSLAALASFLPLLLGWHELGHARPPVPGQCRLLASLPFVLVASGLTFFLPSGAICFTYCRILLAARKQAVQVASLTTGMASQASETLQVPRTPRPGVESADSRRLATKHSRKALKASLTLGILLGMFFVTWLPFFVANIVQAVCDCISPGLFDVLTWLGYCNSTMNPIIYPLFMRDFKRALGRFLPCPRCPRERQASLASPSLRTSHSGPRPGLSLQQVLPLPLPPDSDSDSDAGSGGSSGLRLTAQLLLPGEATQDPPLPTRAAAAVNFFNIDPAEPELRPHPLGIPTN

## Cl.O=S(=O)(Nc1ccc2c(c1)CCNCC2)c1ccc(Br)cc1OC(F)(F)F [Example E11, 7-(4Bromo-2-trifluoromethoxy)phenylsulfonamido-2,3,4,5-tetrahydro-1H-benzo[d]azepine, hydrochloride]
other
  melting point: 231 to 233 °C

## Cl.O=S(=O)(Nc1ccc2c(c1)CCNCC2)c1ccc(Cl)cc1OC(F)(F)F [Example E12, 7-(4-Chloro-2-trifluoromethoxy)phenylsulfonamido-2,3,4,5-tetrahydro-1H-benzo[d]azepine, hydrochloride]
other
  melting point: 210 to 211 °C

## O=S(=O)(Nc1ccc2c(c1)CCNCC2)c1ccc(Br)cc1OC(F)(F)F [Example E6, 7-(4-Bromo-2-trifuoromethoxy)phenylsulfonamido-2,3,4,5-tetrahydro-1H-benzo[d]azepine]
[1]
  Ki: < 3.16 nM

## O=S(=O)(Nc1ccc2c(c1)CCNCC2)c1ccc(Cl)cc1OC(F)(F)F [Example E10, 7(4-Chloro-2-trifluoromethoxy)phenylsulfonamido-2,3,5-tetrahydro-1H-benzo[d]azepine]
[1]
  Ki: < 3.16 nM
